According to patent US20110052720A1 (priority 2007, published 2011):

Test: Reversal of a formed copper phosphite precipitate by an added agent (Example 1)
Assay type: physicochemical
Details: precipitate from 0.6 g/l Cu(OH)2, 14.4 g/l KH2PO3, 1 g/l K2CO3, pH 5.5; chelators 10 mM, sodium lignosulfonate 6 g/l (48 hours of stirring)
Text: Copper phosphite precipitate was formed by combining 0.6 g/l of Cu(OH)2 and 14.4 g/l of KH2PO3 in the presence of 1 g/l of K2CO3 to ensure pH 5.5 in demineralised water.

O=C([O-])CN(CCN(CC(=O)[O-])CC(=O)O)CC(=O)O.[Na+].[Na+] [disodium EDTA]
Effect of afterwards addition on copper phosphite precipitate: immediately disappeared
